Data: patent US20200246284A1 (Academia Sinica, priority 2015, published 2020)
“And” between values parts separate entries of the source, which are not always exact repeats. Equal values may be shown once.

Experiments:
CB CD34+ cells (+FCS) = assay: Cytotoxicity normal tissue; format: cell-based, human
SET2 = assay: Cytotoxicity leukemia; format: cell-based; conditions: Homo sapiens, SET-2; SET2 JAK2-V617 mut
CCRF-CEM = assay: Cytotoxicity leukemia; format: cell-based, human
SHP77 = assay: Cytotoxicity LCLC/SCLC; format: cell-based, human
C57Bl/6 mice = assay: Complete blood counts in healthy mice; format: in vivo, mouse
Text: This is particularly striking in the case of neutrophils, red blood cells and platelets, whose levels are the most frequent dose limiting toxicities seen in clinic evaluation of alkylating drug therapy. There was a 3-4-fold increase in monocytes. The only negative effect was a modest reduction in WBC numbers due to mild lymphopenia at day 10 in the BO-treated group.

[1] = Pharmacokinetics, IV bolus 10 mg/kg; format: in vivo, Sprague-Dawley rats; conditions: rat
Experimental: Serial blood samples were collected from the jugular vein at 0, 5, 10, 15, 30, 45, 60, 90, 120, 150, 180, 240, 300, 360 min after dosing. […] All pharmacokinetic analysis was carried out using the WinNonlin Standard Edition Version 1.0 (Scientific Consulting Inc., Apex, NC, USA).

H526 xenografts = assay: SCLC H526 xenograft in NSG mice; format: in vivo, mouse; conditions: 30 mg/kg i.v. every second day; d30
Text: Xenografts of GFP/Luciferase-labeled H526 were established in groups of ten NSG male mice aged 12 wks by subcutaneous injection of 50,000 tumor cells.

H526 xenograft = assay: SCLC H526 xenograft in nude mice; format: in vivo, mouse; conditions: 40 mg/kg i.v.
Ly10 = conditions: human
Experimental: (§1) After 72 hours, the cultures were pulsed with Alamar Blue overnight, and the fluorescent intensity of resulted cultures was measured by a Synergy H1 plate-reader (BioTek Inc).

SUDHL-4 = conditions: human
Experimental: as §1

Toledo = conditions: human
Experimental: as §1

[2] = tested on: spontaneous murine B-cell lymphoma; conditions: mouse
Ly19 = assay: cells; conditions: Homo sapiens, read-out: cytotoxicity IC50
Farage = assay: cells; conditions: Homo sapiens, read-out: cytotoxicity IC50
Microsome stability = conditions: rat, microsomes
NECB-1 = assay: Cytotoxicity mantle cell lymphoma; conditions: read-out: cytotoxicity IC50; NECB-1, mantle cell lymphoma
Experimental: as §1

[3] = tested on: nude mice bearing prostate 22Rv/HL2; assay: Blood chemistry, 22Rv/HL2 xenograft mice; conditions: 24 hrs after last treatment
[4] = tested on: 16HBE SV40+ bronchial epithelium; format: cell-based, human
[5] = tested on: BEAS2B SV40 bronchial epithelium; format: cell-based, human
NOSE ovarian epithelium = format: cell-based, human
CALU-6 = format: cell-based, human
H1666 = format: cell-based, human
H1755 = format: cell-based, human
H23 = format: cell-based, human
H3255 = format: cell-based, human
EBC1 = format: cell-based, human
H1703 = format: cell-based, human
H520 = format: cell-based, human
H524 = assay: Cytotoxicity SCLC 72 hr alamar blue; format: cell-based, human
H526 = assay: Cytotoxicity SCLC 72 hr alamar blue; format: cell-based, human
H562 = assay: Cytotoxicity SCLC 72 hr alamar blue; format: cell-based, human
H69 = assay: Cytotoxicity SCLC 72 hr alamar blue; format: cell-based, human
H678 = assay: Cytotoxicity SCLC 72 hr alamar blue; format: cell-based, human
H841 = assay: Cytotoxicity SCLC 72 hr alamar blue; format: cell-based, human
H889 = assay: Cytotoxicity SCLC 72 hr alamar blue; format: cell-based, human; conditions: read-out: IC50
[6] = 30 mg/kg i.v. every other day x5
[7] = day 10, 30 mg/kg i.v. days 1,3,5,8,10
[8] = male, Sprague-Dawley, plasma, IV 10 mg/kg, n=5
[9] = male, Sprague-Dawley, plasma, iv, 10 mg/kg, n=5

Which IC50 (CB CD34+ cells (+FCS); Homo sapiens, CB CD34+ cells, +FCS) does the source give for CN(C)CCNC(=O)c1cccc(NC(=O)Nc2ccc(N(CCCl)CCCl)cc2)c1 [BO-1055, Ureidomustine] here?
Its IC50 is over 10 µM.

And the IC50 (CB CD34+ cells (+FCS); Homo sapiens, normal CB CD34+, FBS/FCS or serum free)?
Its IC50 is 9.9 to 10.2 µM.

What about the IC50 (CB CD34+ cells (+FCS); normal CB CD34+, FBS/FCS or serum free) of the same compound?
Its IC50 is 8.5 to 10.5 µM.

What about the IC50 (SET2) of the same compound?
Its IC50 is over 10 µM.

And the IC50 (CCRF-CEM)?
Its IC50 is 130 ± 2 nM.

What about the IC50 (SHP77) of the same compound?
The IC50 was 40 µM.

What about the increase in monocytes (C57Bl/6 mice; [6]) of the same compound?
Its increase in monocytes is 3-4 fold.

What about the “suppression of hematologic parameters” value (C57Bl/6 mice; [6]) of the same compound?
The value was “no significant suppression”.

What about the HCT (C57Bl/6 mice; [7]) of the same compound?
The HCT was 46.30 ± 1.04%.

What about the HGB (C57Bl/6 mice; [7]) of the same compound?
Its HGB is 13.08 ± 0.25 g/dL.

And the MCHC (C57Bl/6 mice; [7])?
Its MCHC is 28.28 ± 0.42 g/dL.

And the MCV (C57Bl/6 mice; [7])?
The MCV was 51.03 ± 1.25 fL.

What about the MPV (C57Bl/6 mice; [7]) of the same compound?
The MPV was 6.38 ± 0.09 fL.

And the PDW (C57Bl/6 mice; [7])?
Its PDW is 7.40 ± 0.24 fL.

What about the PLT (C57Bl/6 mice; [7]) of the same compound?
The PLT was 1108.3 ± 76.1 K/μL.

And the RBC (C57Bl/6 mice; [7])?
Its RBC is 9.08 ± 0.18 M/μL.

What about the RDW-CV (C57Bl/6 mice; [7]) of the same compound?
Its RDW-CV is 23.18 ± 0.64%.

And the RDW-SD (C57Bl/6 mice; [7])?
The RDW-SD was 32.48 ± 0.29 fL.

And the WBC (C57Bl/6 mice; [7])?
Its WBC is 5.34 ± 0.99 K/μL.

What about the tissue distribution ([1]; IV 10 mg/kg) of the same compound?
Its tissue distribution is “accumulated mainly in the kidney, with only a limited amount detected in the brain”.

What about the Cl ([1]; IV 10 mg/kg, n=5, 10 mg/kg) of the same compound?
The Cl was 39.2 ± 10.6 mL/min per kg.

What about the AUC [1, 8] of the same compound?
Its AUC is 4450 ng·h/mL.

What about the Cmax [1, 8] of the same compound?
The Cmax was 13400 ± 6170 ng/mL.

And the clearance [1, 9]?
The clearance was 39.4 ± 10.6 mL/min/kg.

And the half-life [1, 9]?
Its half-life is 46.2 min.

And the tumor-free mice (H526 xenografts)?
Its tumor-free mice is 3/5.

What about the “complete remission (CR)” value (H526 xenograft; 28 d) of the same compound?
Its value is 3/4.

What about the “complete remission (CR)” value (H526 xenograft; 32 d) of the same compound?
The value was 2/4.

What about the “complete remission (CR)” value (H526 xenograft; 77 d) of the same compound?
The value was 1/4.

What about the IC50 (Ly10) of the same compound?
The IC50 was 120 nM.

And the IC50 (SUDHL-4)?
Its IC50 is 1950 nM.

What about the IC50 (Toledo) of the same compound?
Its IC50 is 8.95 µM.

And the IC50 [2]?
Its IC50 is 460 nM.

And the IC50 (Ly19)?
The IC50 was 290 nM.

And the IC50 (Farage)?
The IC50 was 440 nM.

What about the intrinsic clearance (Microsome stability) of the same compound?
The intrinsic clearance was “High intrinsic clearance”.

What about the IC50 (NECB-1) of the same compound?
Its IC50 is 7.71 µM and 8.41 µM.

And the ALT [3]?
The ALT was 56.83 U/L.

And the AST [3]?
Its AST is 102.17 U/L.

And the BUN [3]?
Its BUN is 37.23 mg/dL.

And the CREA [3]?
The CREA was 0.38 mg/dL.

And the UA [3]?
The UA was 3.73 mg/dL.

What does the source list for N.N.[Cl][Pt][Cl] [Cisplatin]?
IC50 [4]: 3.6 µM; IC50 [5]: 4.1 µM; IC50 (NOSE ovarian epithelium): ≥ 25 µM; IC50 (CALU-6): 3.25 µM; IC50 (H1666): ≥ 20 µM; IC50 (H1755): ≥ 15 µM; IC50 (H23): 2500 nM; IC50 (H3255): ≥ 25 µM; IC50 (EBC1): ≥ 100 µM; IC50 (H1703): ≥ 20 µM; IC50 (H520): 9.1 µM; IC50 (H524): 410 nM; IC50 (H526): 2850 nM; IC50 (H562): 1390 nM; IC50 (H69): 3.42 µM; IC50 (H678): 3.81 µM; IC50 (H841): ≥ 20 µM; IC50 (H889): 410 nM
